Source: patent US7259161B2, “Compositions useful as inhibitors of JAK and other protein kinases” (Vertex Pharmaceuticals Incorporated, priority 2002, dated 2007)

Experiments:
ZAP-70 = target: T1, ZAP-70 (Homo sapiens, UniProt P43403); assay: ZAP-70 inhibition assay (coupled enzyme assay); type: biochemical; details: 100 μM ATP, 60 nM ZAP-70
T1 sequence (P43403 1-619): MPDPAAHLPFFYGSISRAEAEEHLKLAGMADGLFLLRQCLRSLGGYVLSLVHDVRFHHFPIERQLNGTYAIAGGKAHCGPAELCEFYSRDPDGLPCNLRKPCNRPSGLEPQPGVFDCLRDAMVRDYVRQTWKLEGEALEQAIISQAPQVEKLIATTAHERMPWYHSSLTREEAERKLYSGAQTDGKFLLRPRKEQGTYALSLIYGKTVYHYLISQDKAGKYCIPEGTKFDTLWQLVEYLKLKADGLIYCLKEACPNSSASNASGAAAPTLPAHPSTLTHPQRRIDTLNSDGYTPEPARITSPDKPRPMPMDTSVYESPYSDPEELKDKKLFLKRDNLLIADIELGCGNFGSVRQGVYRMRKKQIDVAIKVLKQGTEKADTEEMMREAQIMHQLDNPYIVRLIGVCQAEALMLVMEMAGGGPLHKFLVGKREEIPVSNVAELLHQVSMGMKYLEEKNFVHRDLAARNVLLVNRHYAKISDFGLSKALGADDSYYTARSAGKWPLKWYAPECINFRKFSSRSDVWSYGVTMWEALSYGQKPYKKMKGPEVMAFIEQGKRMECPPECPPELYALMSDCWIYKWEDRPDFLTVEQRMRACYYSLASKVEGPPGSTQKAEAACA
Description: Compounds were screened for their ability to inhibit ZAP-70 using a standard coupled enzyme assay (Fox et al., Protein Sci., (1998) 7, 2249). Assays were carried out in a mixture of 100 mM HEPES 7.5, 10 mM MgCl2, 25 mM NaCl, 2 mM DTT and 3% DMSO. Final substrate concentrations in the assay were 100 μM ATP (Sigma Chemicals) and 20 μM peptide (poly-4EY, Sigma Chemicals). Assays were carried out at 30° C. and 60 nM ZAP-70. Final concentrations of the components of the coupled enzyme system were 2.5 mM phosphoenolpyruvate, 300 μM NADH, 30 μg/ml pyruvate kinase and 10 μg/ml lactate dehydrogenase.
An assay stock buffer solution was prepared containing all of the reagents listed above, with the exception of ZAP-70 and the test compound of interest. 55 μl of the stock solution was placed in a 96 well plate followed by addition of 2 μl of DMSO stock containing serial dilutions of the test compound (typically starting from a final concentration of 15 μM). […] Initial reaction rates were determined with a Molecular Devices SpectraMax Plus plate reader over a 15 minute time course. IC50 and Ki data were calculated from non-linear regression analysis using the Prism software package (GraphPad Prism version 3.0a for Macintosh, GraphPad Software, San Diego Calif., USA).

JAK3 = target: T2, JAK3 (Homo sapiens, UniProt P52333); assay: JAK3 inhibition assay; type: biochemical; details: 2 μM ATP, ELISA read at 450 nm
T2 sequence (P52333 1-1124): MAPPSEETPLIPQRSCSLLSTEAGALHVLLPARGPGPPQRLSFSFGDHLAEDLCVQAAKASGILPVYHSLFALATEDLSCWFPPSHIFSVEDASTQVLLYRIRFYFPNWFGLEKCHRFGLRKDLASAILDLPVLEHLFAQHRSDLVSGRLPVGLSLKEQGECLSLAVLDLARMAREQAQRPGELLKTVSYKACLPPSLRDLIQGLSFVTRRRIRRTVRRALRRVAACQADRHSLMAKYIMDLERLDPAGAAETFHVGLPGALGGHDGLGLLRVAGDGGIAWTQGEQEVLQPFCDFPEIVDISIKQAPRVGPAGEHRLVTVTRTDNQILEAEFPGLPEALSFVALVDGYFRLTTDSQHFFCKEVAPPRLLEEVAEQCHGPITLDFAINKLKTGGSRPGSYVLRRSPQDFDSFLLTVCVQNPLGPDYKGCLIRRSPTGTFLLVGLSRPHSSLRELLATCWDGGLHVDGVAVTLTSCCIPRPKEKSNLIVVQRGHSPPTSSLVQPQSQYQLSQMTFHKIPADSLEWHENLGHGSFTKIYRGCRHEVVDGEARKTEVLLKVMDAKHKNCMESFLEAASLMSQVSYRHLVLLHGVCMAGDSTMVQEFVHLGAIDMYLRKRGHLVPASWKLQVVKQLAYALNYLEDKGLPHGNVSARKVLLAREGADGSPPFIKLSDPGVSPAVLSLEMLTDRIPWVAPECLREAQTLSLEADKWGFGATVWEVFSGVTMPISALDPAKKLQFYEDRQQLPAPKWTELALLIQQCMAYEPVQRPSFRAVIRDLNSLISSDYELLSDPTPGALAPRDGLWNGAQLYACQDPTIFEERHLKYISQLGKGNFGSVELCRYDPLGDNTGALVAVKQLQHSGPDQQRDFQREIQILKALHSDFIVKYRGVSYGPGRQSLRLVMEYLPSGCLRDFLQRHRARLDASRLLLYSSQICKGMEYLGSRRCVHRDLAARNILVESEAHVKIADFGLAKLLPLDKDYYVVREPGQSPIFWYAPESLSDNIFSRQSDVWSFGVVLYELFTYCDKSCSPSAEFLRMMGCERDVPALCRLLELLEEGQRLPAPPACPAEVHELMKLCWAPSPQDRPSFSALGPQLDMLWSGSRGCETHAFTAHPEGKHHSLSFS
Description: Compounds were screened for their ability to inhibit JAK3 according to the method described by G. R. Brown, et al, Bioorg. Med. Chem. Lett. 2000, vol. 10, pp 575–579 in the following manner. Into Maxisorb plates, previously coated at 4° C. with Poly (Glu, Ala, Tyr) 6:3:1 then washed with phosphate buffered saline 0.05% and Tween (PBST), was added 2 μM ATP, 5 MM MgCl2, and a solution of compound in DMSO. The reaction was started with JAK enzyme and the plates incubated for 60 minutes at 30° C. The plates were then washed with PBST, 100 μL HRP-Conjugated 4G10 antibody was added, and the plate incubated for 90 minutes at 30° C. The plate was again washed with PBST, 100 μL TMB solution is added, and the plates were incubated for another 30 minutes at 30° C. Sulfuric acid (100 μL of 1M) was added to stop the reaction and the plate is read at 450 nm to obtain the optical densities for analysis to determine Ki values.

Row | Ki (ZAP-70) | Ki (JAK3) | Compound
1 | < 1000 nM | < 5000 nM | NS(=O)(=O)c1ccc(Nc2nccc(-c3ccc4c(c3)NC(=O)CO4)n2)cc1 [IVa-23]
2 | < 1000 nM | < 5000 nM | CN1C(=O)COc2ccc(-c3ccnc(Nc4ccc(S(N)(=O)=O)cc4)n3)cc21 [IVa-24]
